{
  "source": "patent US4031077A",
  "about": "“Antibacterial 3-phosphono penams” (priority 1976, dated 1977)",
  "key": {"Staph. aureus": {"system": "Staph. aureus", "format": "cell-based, Staphlococcus aureus"}, "Strep. equi.": {"system": "Strep. equi.", "experiment": "microbe, parasite or virus in culture", "format": "cell-based, Streptococcus equis", "conditions": "10^5-10^6 cells, 37° C., anaerobic, sodium salt, Test No. 1-2"}, "Strep. zoo.": {"system": "Strep. zoo.", "format": "cell-based, Streptococcus zoobacter", "conditions": "Strep. zoo. strain 02H001, brain-heart infusion agar, 10^5-10^6 cells, 37° C., anaerobic, sodium salt, Test No. 1-3"}},
  "note": "Where “and” joins values, the source holds several entries; their conditions need not be identical. Equal values may be shown once. Where a name gives a salt, the structure may show the parent alone. Read-outs that look alike come from different tables or passages of the source.",
  "data": [
    {"smiles": "CC1(C)S[C@@H]2C(NC(=O)COc3ccccc3)C(=O)N2C1P(=O)(O)O.[Na]", "note": "(stereo partly drawn) [6-(2-Phenoxyacetamido)-2,2-dimethyl-3-phosphonopenam, sodium salt]", "values": [
      {"measurement": "MIC (minimal inhibitory concentration)", "setting": "Staph. aureus; Staph. aureus strain 01A005, brain-heart infusion agar, 10^5-10^6 cells, 37° C., anaerobic, sodium salt, Test No. 1-3", "result": "> 200", "unit": "µg/mL"},
      {"measurement": "MIC (minimal inhibitory concentration)", "setting": "Staph. aureus; Staph. aureus strain 01A006, brain-heart infusion agar, 10^5-10^6 cells, 37° C., anaerobic, sodium salt, Test No. 1-3", "result": "> 200", "unit": "µg/mL"},
      {"measurement": "MIC (minimal inhibitory concentration)", "setting": "Strep. equi.; Strep. equi. strain 02I001, brain-heart infusion agar", "result": 100, "unit": "µg/mL"},
      {"measurement": "MIC (minimal inhibitory concentration)", "setting": "Strep. zoo.", "result": "100 µg/mL and 200 µg/mL"}
    ]},
    {"smiles": "COP(=O)(O)C1N2C(=O)C(NC(=O)COc3ccccc3)C2SC1(C)C", "note": "(stereo not drawn) [6-(2-Phenoxyacetamido)-2,2-dimethyl-3-(0-methylphosphono)penam, sodium salt]", "values": [
      {"measurement": "MIC (minimal inhibitory concentration)", "setting": "Staph. aureus; Staph. aureus strain 01A006; brain-heart infusion agar, 10^5-10^6 cells, 37° C., anaerobic; sodium salt; Test No. 1-3", "result": 200, "unit": "µg/mL"},
      {"measurement": "MIC", "setting": "Strep. equi.; Streptococcus equi, Strep. equi. strain 02I001, brain-heart infusion agar, read-out: MIC (minimal inhibitory concentration)", "result": 200, "unit": "µg/mL"}
    ]}
  ]
}
